Measurements: patent publication US20240116988A1, “ANTI-ROR1 MACROCYCLIC PEPTIDES AND COMPOSITIONS” (BRISTOL-MYERS SQUIBB COMPANY, priority 2022, published 2024)
Positions of bridges follow the written chain, without caps; N, C: chain ends. Non-standard residues stand in square brackets, D forms with d. Residues, ends and D or L forms follow the SMILES beside them. Bip = N[C@@H](Cc1ccc(-c2ccccc2)cc1)C(=O)O; NMeF = CN[C@@H](Cc1ccccc1)C(=O)O; NMeL = CN[C@@H](CC(C)C)C(=O)O; NMeA = CN[C@@H](C)C(=O)O; Nle = CCCC[C@H](N)C(=O)O; Sar = CNCC(=O)O

Target: T1, human ROR1 (Homo sapiens, UniProt Q01973)
T1 construct: host or cells: HEK 293T cells, Tet-on system induced with doxycycline
Test: ROR1 high content cell-based binding assay
Conditions: read-out: ROR1 Binding 293T Human HC Cell Based Assay IC50
How it was run: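 Doxycycline-induced 293T cells expressing human ROR1, seeded overnight, were treated with compound plus 5-FAM-labeled ROR1-binding probe peptide (30 nM final) for 1 h at 37 °C. After washing and formaldehyde/Hoechst fixation, cell-bound probe fluorescence was read by high-content imaging.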

T1 sequence (Q01973 30-937): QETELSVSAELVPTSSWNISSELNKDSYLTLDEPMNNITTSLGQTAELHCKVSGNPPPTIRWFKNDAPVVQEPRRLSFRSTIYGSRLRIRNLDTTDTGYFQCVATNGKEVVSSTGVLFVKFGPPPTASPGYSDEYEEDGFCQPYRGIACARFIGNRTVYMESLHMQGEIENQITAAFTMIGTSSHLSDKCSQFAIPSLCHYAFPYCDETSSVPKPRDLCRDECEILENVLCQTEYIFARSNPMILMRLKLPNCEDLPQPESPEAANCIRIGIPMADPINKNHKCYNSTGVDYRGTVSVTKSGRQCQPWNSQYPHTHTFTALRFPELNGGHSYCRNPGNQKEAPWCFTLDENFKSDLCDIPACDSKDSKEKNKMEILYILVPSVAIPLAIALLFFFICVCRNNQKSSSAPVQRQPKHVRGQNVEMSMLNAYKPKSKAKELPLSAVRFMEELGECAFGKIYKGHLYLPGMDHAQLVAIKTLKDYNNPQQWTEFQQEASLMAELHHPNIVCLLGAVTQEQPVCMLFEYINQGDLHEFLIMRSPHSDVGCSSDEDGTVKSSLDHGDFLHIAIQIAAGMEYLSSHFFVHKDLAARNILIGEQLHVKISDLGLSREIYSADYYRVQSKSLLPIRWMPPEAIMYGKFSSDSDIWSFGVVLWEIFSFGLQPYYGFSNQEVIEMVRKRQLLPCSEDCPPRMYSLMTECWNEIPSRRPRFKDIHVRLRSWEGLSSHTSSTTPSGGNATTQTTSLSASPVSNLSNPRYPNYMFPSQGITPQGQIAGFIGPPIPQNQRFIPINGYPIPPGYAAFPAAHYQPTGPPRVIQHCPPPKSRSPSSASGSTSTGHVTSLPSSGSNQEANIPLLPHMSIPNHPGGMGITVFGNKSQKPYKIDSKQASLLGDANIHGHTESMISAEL

Q: For CC(C)C[C@@H]1NC(=O)[C@H](Cc2ccccc2)NC(=O)CSC[C@@H](C(N)=O)NC(=O)[C@H](C(C)C)NC(=O)[C@H](Cc2ccccc2)N(C)C(=O)[C@H](CC(C)C)NC(=O)[C@H](Cc2c[nH]c3ccccc23)NC(=O)CN(C)C(=O)CNC(=O)[C@H](C(C)C)NC(=O)[C@H](Cc2ccc(-c3ccccc3)cc2)NC1=O [Example 1204] ({CH2CO}-FL[Bip]VG[Sar]WL[NMeF]VC-NH2; thioether N-11), which IC50 is on record?
A: 228 nM

Q: With CC(C)C[C@@H]1NC(=O)[C@H](Cc2ccc(O)cc2)NC(=O)[C@H](Cc2ccccc2)NC(=O)CSC[C@@H](C(=O)NCC(N)=O)NC(=O)[C@H](CC(C)C)NC(=O)[C@H](Cc2ccccc2)N(C)C(=O)[C@H](Cc2ccc(O)cc2)NC(=O)[C@H](Cc2c[nH]c3ccccc23)NC(=O)CNC(=O)[C@H](C)NC(=O)[C@H](Cc2ccc(O)cc2)NC(=O)[C@H](C(C)C)NC1=O [Example 1020] ({CH2CO}-FYLVYAGWY[NMeF]LCG-NH2; thioether N-12) as the compound, how does the IC50 read?
A: 18 nM

Q: How did the IC50 turn out when CC(C)C[C@@H]1NC(=O)[C@H](CC(N)=O)NC(=O)[C@H](Cc2ccccc2)N(C)C(=O)CNC(=O)[C@H](Cc2ccc(O)cc2)NC(=O)[C@H](Cc2ccccc2)NC(=O)CSC[C@@H](C(=O)NCC(N)=O)NC(=O)[C@H](Cc2c[nH]c3ccccc23)NC(=O)[C@H](Cc2ccc(O)cc2)NC1=O [Example 1118] ({CH2CO}-FYG[NMeF]NLYWCG-NH2; thioether N-9) was run?
A: 151 nM

Q: Which IC50 does the source give for CC[C@H](C)[C@@H]1NC(=O)[C@H](Cc2ccccc2)NC(=O)CSC[C@@H](C(=O)NCC(N)=O)NC(=O)[C@H](C)NC(=O)[C@H](Cc2ccccc2)NC(=O)[C@H](Cc2ccc(O)cc2)NC(=O)[C@H](Cc2c[nH]c3ccccc23)NC(=O)CNC(=O)[C@H](CCC(=O)O)NC(=O)[C@H](Cc2ccc(O)cc2)NC(=O)[C@H](C(C)C)NC(=O)[C@H](Cc2c[nH]c3ccccc23)NC1=O [Example 1008] ({CH2CO}-FIWVYEGWYFACG-NH2; thioether N-12) here?
A: 36 nM

Q: With CC(C)C[C@@H]1NC(=O)CSC[C@@H](C(=O)NCC(N)=O)NC(=O)[C@H](CC(C)C)NC(=O)[C@H](Cc2ccccc2)N(C)C(=O)[C@H](Cc2ccc(O)cc2)NC(=O)[C@H](Cc2c[nH]c3ccccc23)NC(=O)CNC(=O)[C@H](CO)NC(=O)[C@H](Cc2ccc(O)cc2)NC(=O)[C@H](C(C)C)NC(=O)[C@H](CC(C)C)NC(=O)[C@H](Cc2ccc(O)cc2)NC1=O [Example 1072] ({CH2CO}-LYLVYSGWY[NMeF]LCG-NH2; thioether N-12) as the compound, how does the IC50 read?
A: 80 nM

Q: For CCCC[C@@H]1NC(=O)[C@H](Cc2ccc(O)cc2)NC(=O)[C@H](Cc2c[nH]c3ccccc23)NC(=O)[C@H](C)N(C)C(=O)[C@H](CCCNC(=N)N)NC(=O)[C@H](CO)NC(=O)[C@H](CO)NC(=O)[C@H](Cc2c[nH]c3ccccc23)NC(=O)[C@H](Cc2ccc(O)cc2)NC(=O)[C@H](Cc2ccccc2)NC(=O)CSC[C@@H](C(N)=O)NC(=O)[C@H](CC(C)C)N(C)C1=O [Example 1096] ({CH2CO}-FYWSSR[NMeA]WY[Nle][NMeL]C-NH2; thioether N-12), which IC50 is on record?
A: 4 nM

Q: How did the IC50 turn out when CC(C)C[C@@H]1NC(=O)[C@H](Cc2ccc(O)cc2)NC(=O)[C@H](Cc2ccccc2)NC(=O)CSC[C@@H](C(=O)NCC(N)=O)NC(=O)[C@H](CC(C)C)NC(=O)[C@H](Cc2ccccc2)N(C)C(=O)[C@H](Cc2ccc(O)cc2)NC(=O)[C@H](Cc2c[nH]c3ccccc23)NC(=O)CNC(=O)[C@H](CCCNC(=N)N)NC(=O)CNC(=O)[C@H](C(C)C)NC1=O [Example 1033] ({CH2CO}-FYLVGRGWY[NMeF]LCG-NH2; thioether N-12) was run?
A: 768 nM

Q: For CC(C)C[C@@H]1NC(=O)[C@H](Cc2ccc(O)cc2)NC(=O)[C@H](Cc2ccccc2)NC(=O)CSC[C@@H](C(=O)NCC(N)=O)NC(=O)[C@H](CC(C)C)NC(=O)[C@H](Cc2ccccc2)N(C)C(=O)[C@H](Cc2ccc(O)cc2)NC(=O)[C@H](Cc2c[nH]c3ccccc23)NC(=O)[C@H](CCCCN)NC(=O)[C@H](CO)NC(=O)[C@H](Cc2ccc(O)cc2)NC(=O)[C@H](C(C)C)NC1=O [Example 1056] ({CH2CO}-FYLVYSKWY[NMeF]LCG-NH2; thioether N-12), which IC50 is on record?
A: 740 nM
